Data taken from patent publication US10916331B2, “Predicting drug-target interactions and uses for drug repositioning and repurposing” (GEORGETOWN UNIVERSITY, priority 2015, dated 2021).

How the values were obtained:
VEGFR-2 = molecular target: T1, VEGFR-2 (Homo sapiens, UniProt P35968); test: Kinomescan active site-directed competition binding assay
T1 construct: purchased Discoverx (Kinomescan); host or cells: E. coli BL21-derived host (T7 phage) or HEK-293
Experimental: Kinase-tagged T7 phage strains were grown in parallel in 24-well blocks in an E. coli host derived from the BL21 strain. […] The remaining kinases were produced in HEK-293 cells and subsequently tagged with DNA for qPCR detection. […] The liganded beads were blocked with excess biotin and washed with blocking buffer (SeaBlock (Pierce), 1% BSA, 0.05% Tween 20, 1 mM DTT) to remove unbound ligand and to reduce non-specific phage binding. […] All reactions were performed in polypropylene 384-well plates in a final volume of 0.04 ml. […] The kinase concentration in the eluates was measured by qPCR.
An 11-point 3-fold serial dilution of each test compound was prepared in 100% DMSO at 100× final test concentration and subsequently diluted to 1× in the assay (final DMSO concentration=1%).

hookworm tubulin = settings: background statement; cited from earlier work
DYRK1B = molecular target: T2, DYRK1B (Homo sapiens, UniProt Q9Y463); test: Kinomescan active site-directed competition binding assay
T2 construct: purchased Discoverx (Kinomescan); host or cells: E. coli BL21-derived host (T7 phage) or HEK-293
T2 sequence (Q9Y463 whole entry): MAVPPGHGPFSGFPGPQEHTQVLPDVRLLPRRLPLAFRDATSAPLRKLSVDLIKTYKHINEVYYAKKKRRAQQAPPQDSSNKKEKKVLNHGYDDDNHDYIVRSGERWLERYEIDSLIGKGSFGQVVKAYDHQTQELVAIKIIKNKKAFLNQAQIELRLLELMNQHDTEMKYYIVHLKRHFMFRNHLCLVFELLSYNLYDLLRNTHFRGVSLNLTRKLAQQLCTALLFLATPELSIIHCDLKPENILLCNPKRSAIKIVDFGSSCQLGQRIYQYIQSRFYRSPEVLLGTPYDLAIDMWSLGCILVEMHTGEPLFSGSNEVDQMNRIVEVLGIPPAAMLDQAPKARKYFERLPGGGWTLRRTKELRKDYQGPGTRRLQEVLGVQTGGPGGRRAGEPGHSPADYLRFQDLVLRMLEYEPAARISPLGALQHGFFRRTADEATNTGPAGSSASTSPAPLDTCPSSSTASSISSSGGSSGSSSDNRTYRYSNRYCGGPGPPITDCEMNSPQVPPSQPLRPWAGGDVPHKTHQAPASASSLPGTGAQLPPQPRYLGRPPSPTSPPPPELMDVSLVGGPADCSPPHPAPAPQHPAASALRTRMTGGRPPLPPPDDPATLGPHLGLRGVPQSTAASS
Experimental: (§1) Kinase assays were performed using Kinomescan, by Discoverx, CA, USA and Caliper LabChip 3000 by Caliper Life sciences, USA as described previously. The determination of MBZ thermodynamic binding affinities (Kd) to kinase targets predicted by RepurposeVS was performed by using active site-directed competition binding. Kinase-tagged T7 phage strains were grown in parallel in 24-well blocks in an E. coli host derived from the BL21 strain. E. coli bacteria were grown to log-phase and infected with T7 phage from a frozen stock (multiplicity of infection=0.4) and incubated with shaking at 32° C. until lysis (90-150 minutes). The lysates were centrifuged (6,000×g) and filtered (0.2 μm sieves) to remove cell debris. The remaining kinases were produced in HEK-293 cells and subsequently tagged with DNA for qPCR detection. […] The liganded beads were blocked with excess biotin and washed with blocking buffer (SeaBlock (Pierce), 1% BSA, 0.05% Tween 20, 1 mM DTT) to remove unbound ligand and to reduce non-specific phage binding. Binding reactions were assembled by combining kinases, control liganded affinity beads, and mebendazole in 1× binding buffer (20% SeaBlock, 0.17×PBS, 0.05% Tween 20, 6 mM DTT). Mebendazole was prepared as 40× stocks in 100% DMSO and directly diluted into the assay. All reactions were performed in polypropylene 384-well plates in a final volume of 0.04 ml. The assay plates were incubated at room temperature with shaking for 1 hour and the affinity beads were washed with wash buffer (lx PBS, 0.05% Tween 20). […] The kinase concentration in the eluates was measured by qPCR. […] The amount of kinase captured in test versus control samples were measured by using a quantitative, precise and ultra-sensitive qPCR method that detects the associated DNA label. Using (13), the primary screen binding interactions are reported as ‘% Ctrl’ (Percent kinase remaining activity), where lower numbers indicate stronger hits. In a similar manner, binding constants (Kd) for mebendazole-kinase interactions are calculated by measuring the amount of kinase captured as a function of the mebendazole concentration in a dose response manner. […] Binding constants (Kd) were calculated with a standard dose-response curve (drug dose (x-axis)−qPCR signal (y-axis)) using the Hill equation in (14) with the Hill Slope set to −1.

GSK3B = molecular target: T3, GSK3B (Homo sapiens, UniProt P49841); test: as above; settings: MBZ at 10 μM, lower = stronger hit, read-out: Percent Control at 10 μM
T3 construct: purchased Discoverx (Kinomescan); host or cells: E. coli BL21-derived host (T7 phage) or HEK-293
Experimental: as §1

KIT = molecular target: T4, KIT (Homo sapiens, UniProt P10721); test: as above; settings: listed as 'KIT (D816V)'
T4 construct: purchased Discoverx (Kinomescan); host or cells: E. coli BL21-derived host (T7 phage) or HEK-293
T4 sequence (P10721 26-976): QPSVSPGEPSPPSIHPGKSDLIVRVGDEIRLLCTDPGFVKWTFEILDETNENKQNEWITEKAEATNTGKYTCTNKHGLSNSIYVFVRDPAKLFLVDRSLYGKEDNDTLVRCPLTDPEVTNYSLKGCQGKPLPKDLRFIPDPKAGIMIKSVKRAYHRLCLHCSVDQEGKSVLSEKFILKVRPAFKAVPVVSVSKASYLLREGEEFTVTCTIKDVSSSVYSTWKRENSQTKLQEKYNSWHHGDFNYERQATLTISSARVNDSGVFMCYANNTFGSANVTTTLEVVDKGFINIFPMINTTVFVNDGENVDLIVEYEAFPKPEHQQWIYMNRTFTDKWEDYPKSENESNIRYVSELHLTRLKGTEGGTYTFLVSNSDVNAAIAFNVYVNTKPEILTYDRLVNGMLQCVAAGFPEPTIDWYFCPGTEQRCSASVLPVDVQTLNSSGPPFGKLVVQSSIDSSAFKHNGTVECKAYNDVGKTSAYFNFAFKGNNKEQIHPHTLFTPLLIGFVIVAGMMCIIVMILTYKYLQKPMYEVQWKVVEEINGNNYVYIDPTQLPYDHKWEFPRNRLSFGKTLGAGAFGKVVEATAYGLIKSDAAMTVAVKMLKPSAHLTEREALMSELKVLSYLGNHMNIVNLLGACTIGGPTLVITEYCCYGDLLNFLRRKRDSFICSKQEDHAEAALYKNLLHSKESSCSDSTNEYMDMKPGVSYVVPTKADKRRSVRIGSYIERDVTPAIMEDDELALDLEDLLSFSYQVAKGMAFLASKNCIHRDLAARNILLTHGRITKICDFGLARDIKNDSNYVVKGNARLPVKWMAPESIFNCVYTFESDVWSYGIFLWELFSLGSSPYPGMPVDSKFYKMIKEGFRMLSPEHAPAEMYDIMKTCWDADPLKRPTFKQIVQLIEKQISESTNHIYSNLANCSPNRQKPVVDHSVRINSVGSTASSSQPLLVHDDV
Experimental: as §1

PIK3CG = molecular target: T5, PIK3CG (Homo sapiens, UniProt P48736); test: as above; settings: MBZ at 10 μM, lower = stronger hit, read-out: Percent Control at 10 μM
T5 construct: purchased Discoverx (Kinomescan); host or cells: E. coli BL21-derived host (T7 phage) or HEK-293
Experimental: as §1

ABL1-nonphosphorylated = molecular target: T6, ABL1-nonphosphorylated (Homo sapiens, UniProt P00519); test: as above; settings: MBZ at 10 μM, lower = stronger hit, read-out: Percent Control at 10 μM
T6 construct: purchased Discoverx (Kinomescan); host or cells: E. coli BL21-derived host (T7 phage) or HEK-293
Experimental: as §1

[1] = molecular target: T7, ABL1(E255K)-phosphorylated (Homo sapiens, UniProt P00519, E255K); test: as above; settings: MBZ at 10 μM, lower = stronger hit, read-out: Percent Control at 10 μM
T7 construct: purchased Discoverx (Kinomescan); host or cells: E. coli BL21-derived host (T7 phage) or HEK-293
Experimental: as §1

JNK2 = molecular target: T8, JNK2 (Homo sapiens, UniProt P45984); test: as above
T8 construct: purchased Discoverx (Kinomescan); host or cells: E. coli BL21-derived host (T7 phage) or HEK-293
T8 sequence (P45984 whole entry): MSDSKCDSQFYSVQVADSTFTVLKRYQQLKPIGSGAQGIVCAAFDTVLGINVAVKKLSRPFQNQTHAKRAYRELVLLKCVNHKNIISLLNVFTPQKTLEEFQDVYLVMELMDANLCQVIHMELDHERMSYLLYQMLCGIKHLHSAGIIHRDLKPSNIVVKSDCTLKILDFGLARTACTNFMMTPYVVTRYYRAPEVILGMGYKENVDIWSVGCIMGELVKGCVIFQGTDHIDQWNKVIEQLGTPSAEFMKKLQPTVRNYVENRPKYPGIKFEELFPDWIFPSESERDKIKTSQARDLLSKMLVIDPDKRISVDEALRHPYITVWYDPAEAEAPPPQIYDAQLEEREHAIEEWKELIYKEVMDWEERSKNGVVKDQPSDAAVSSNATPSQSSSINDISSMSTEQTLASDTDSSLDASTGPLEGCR
Experimental: as §1

CDK7 = molecular target: T9, CDK7 (Homo sapiens, UniProt P50613); test: as above
T9 construct: purchased Discoverx (Kinomescan); host or cells: E. coli BL21-derived host (T7 phage) or HEK-293
Experimental: as §1

KIT (D816V) = molecular target: T10, KIT (D816V) (Homo sapiens, UniProt P10721, D816V); test: as above; settings: MBZ at 10 μM; listed as 'KIT (D816V)', value in parentheses; read-out: Percent Control at 10 μM
T10 construct: purchased Discoverx (Kinomescan); host or cells: E. coli BL21-derived host (T7 phage) or HEK-293
T10 sequence (P10721 26-976 D816V): as the sequence (P10721 26-976) above, with D791V counted along it
Experimental: as §1

JNK3 = molecular target: T11, JNK3 (Homo sapiens, UniProt P53779); test: as above
T11 construct: purchased Discoverx (Kinomescan); host or cells: E. coli BL21-derived host (T7 phage) or HEK-293
T11 sequence (P53779 whole entry): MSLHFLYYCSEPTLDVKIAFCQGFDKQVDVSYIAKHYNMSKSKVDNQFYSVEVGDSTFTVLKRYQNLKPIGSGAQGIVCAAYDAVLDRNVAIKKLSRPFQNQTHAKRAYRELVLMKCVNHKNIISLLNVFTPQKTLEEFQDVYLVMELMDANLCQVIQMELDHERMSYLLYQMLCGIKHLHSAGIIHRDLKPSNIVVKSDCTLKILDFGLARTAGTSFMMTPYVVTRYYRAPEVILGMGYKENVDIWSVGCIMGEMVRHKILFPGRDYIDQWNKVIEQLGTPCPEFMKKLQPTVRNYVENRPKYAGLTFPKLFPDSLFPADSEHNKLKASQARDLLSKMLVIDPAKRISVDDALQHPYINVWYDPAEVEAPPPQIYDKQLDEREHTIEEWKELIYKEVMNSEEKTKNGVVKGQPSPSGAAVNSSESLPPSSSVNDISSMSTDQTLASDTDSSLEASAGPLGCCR
Experimental: as §1

JAK3 = molecular target: T12, JAK3 (Homo sapiens, UniProt P52333); test: as above; settings: MBZ at 10 μM, lower = stronger hit, read-out: Percent Control at 10 μM
T12 construct: purchased Discoverx (Kinomescan); host or cells: E. coli BL21-derived host (T7 phage) or HEK-293
Experimental: as §1

PDGFR-B = molecular target: T13, PDGFR-B (Homo sapiens, UniProt P09619); test: as above
T13 construct: purchased Discoverx (Kinomescan); host or cells: E. coli BL21-derived host (T7 phage) or HEK-293
T13 sequence (P09619 33-1106): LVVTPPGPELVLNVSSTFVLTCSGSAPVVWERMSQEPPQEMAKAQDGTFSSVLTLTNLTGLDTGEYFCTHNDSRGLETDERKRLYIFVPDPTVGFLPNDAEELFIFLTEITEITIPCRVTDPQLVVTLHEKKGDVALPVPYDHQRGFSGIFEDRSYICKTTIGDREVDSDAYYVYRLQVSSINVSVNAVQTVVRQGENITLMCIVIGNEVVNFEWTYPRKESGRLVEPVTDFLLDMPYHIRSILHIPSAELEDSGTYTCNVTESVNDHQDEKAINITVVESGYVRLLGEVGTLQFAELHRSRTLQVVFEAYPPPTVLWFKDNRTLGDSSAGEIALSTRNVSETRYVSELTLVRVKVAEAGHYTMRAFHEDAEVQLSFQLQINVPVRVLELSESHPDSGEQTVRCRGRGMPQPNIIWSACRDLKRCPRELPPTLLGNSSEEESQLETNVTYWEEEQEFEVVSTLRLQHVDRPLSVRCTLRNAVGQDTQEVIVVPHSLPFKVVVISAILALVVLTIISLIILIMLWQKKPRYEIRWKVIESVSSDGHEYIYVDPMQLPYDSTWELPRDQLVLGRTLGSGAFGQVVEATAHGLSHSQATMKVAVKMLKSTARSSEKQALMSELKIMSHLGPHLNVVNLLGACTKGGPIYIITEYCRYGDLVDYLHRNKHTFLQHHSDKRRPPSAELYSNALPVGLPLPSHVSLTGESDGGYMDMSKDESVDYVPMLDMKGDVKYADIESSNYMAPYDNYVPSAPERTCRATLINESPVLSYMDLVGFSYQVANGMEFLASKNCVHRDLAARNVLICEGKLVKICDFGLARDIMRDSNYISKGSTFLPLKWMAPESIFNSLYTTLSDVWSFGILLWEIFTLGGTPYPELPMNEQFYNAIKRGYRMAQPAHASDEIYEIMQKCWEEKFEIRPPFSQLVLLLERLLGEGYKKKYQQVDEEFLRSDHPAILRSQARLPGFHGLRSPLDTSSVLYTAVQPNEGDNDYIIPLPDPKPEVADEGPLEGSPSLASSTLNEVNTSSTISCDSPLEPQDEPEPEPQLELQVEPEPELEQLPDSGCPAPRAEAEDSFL
Experimental: as §1

CSNK1D = molecular target: T14, CSNK1D (Homo sapiens, UniProt P48730); test: as above; settings: MBZ at 10 μM, lower = stronger hit, read-out: Percent Control at 10 μM
T14 construct: purchased Discoverx (Kinomescan); host or cells: E. coli BL21-derived host (T7 phage) or HEK-293
Experimental: as §1

PDGFR-A = molecular target: T15, PDGFR-A (Homo sapiens, UniProt P16234); test: as above
T15 construct: purchased Discoverx (Kinomescan); host or cells: E. coli BL21-derived host (T7 phage) or HEK-293
Experimental: as §1

ULK2 = molecular target: T16, ULK2 (Homo sapiens, UniProt Q8IYT8); test: as above; settings: MBZ at 10 μM, lower = stronger hit, read-out: Percent Control at 10 μM
T16 construct: purchased Discoverx (Kinomescan); host or cells: E. coli BL21-derived host (T7 phage) or HEK-293
Experimental: as §1

MET = molecular target: T17, MET (Homo sapiens, UniProt P08581); test: as above; settings: MBZ at 10 μM, lower = stronger hit, read-out: Percent Control at 10 μM
T17 construct: purchased Discoverx (Kinomescan); host or cells: E. coli BL21-derived host (T7 phage) or HEK-293
Experimental: as §1

ABL1-phosphorylated = molecular target: T18, ABL1-phosphorylated (Homo sapiens, UniProt P00519); test: as above
T18 construct: purchased Discoverx (Kinomescan); host or cells: E. coli BL21-derived host (T7 phage) or HEK-293
Experimental: as §1

JNK1 = molecular target: T19, JNK1 (Homo sapiens, UniProt P45983); test: as above; settings: MBZ at 10 μM, lower = stronger hit, read-out: Percent Control at 10 μM
T19 construct: purchased Discoverx (Kinomescan); host or cells: E. coli BL21-derived host (T7 phage) or HEK-293
Experimental: as §1

P38-alpha = molecular target: T20, P38-alpha (Homo sapiens, UniProt Q16539); test: as above
T20 construct: purchased Discoverx (Kinomescan); host or cells: E. coli BL21-derived host (T7 phage) or HEK-293
Experimental: as §1

[2] = molecular target: T21, ABL1(T315I)-phosphorylated (Homo sapiens, UniProt P00519, T315I); test: as above; settings: MBZ at 10 μM, lower = stronger hit, read-out: Percent Control at 10 μM
T21 construct: purchased Discoverx (Kinomescan); host or cells: E. coli BL21-derived host (T7 phage) or HEK-293
Experimental: as §1

DYRK1A = molecular target: T22, DYRK1A (Homo sapiens, UniProt Q13627); test: as above; settings: MBZ at 10 μM, lower = stronger hit, read-out: Percent Control at 10 μM
T22 construct: purchased Discoverx (Kinomescan); host or cells: E. coli BL21-derived host (T7 phage) or HEK-293
Experimental: as §1

SRC = molecular target: T23, SRC (Homo sapiens, UniProt P12931); test: as above; settings: MBZ at 10 μM, lower = stronger hit, read-out: Percent Control at 10 μM
T23 construct: purchased Discoverx (Kinomescan); host or cells: E. coli BL21-derived host (T7 phage) or HEK-293
Experimental: as §1

mammalian tubulin = settings: background statement; cited from earlier work
[3] = 11-point dose response, read-out: Binding Affinity (Kd)
[4] = MBZ at 10 μM, lower = stronger hit, read-out: Percent Control at 10 μM

T1 sequence (P35968 20-1356): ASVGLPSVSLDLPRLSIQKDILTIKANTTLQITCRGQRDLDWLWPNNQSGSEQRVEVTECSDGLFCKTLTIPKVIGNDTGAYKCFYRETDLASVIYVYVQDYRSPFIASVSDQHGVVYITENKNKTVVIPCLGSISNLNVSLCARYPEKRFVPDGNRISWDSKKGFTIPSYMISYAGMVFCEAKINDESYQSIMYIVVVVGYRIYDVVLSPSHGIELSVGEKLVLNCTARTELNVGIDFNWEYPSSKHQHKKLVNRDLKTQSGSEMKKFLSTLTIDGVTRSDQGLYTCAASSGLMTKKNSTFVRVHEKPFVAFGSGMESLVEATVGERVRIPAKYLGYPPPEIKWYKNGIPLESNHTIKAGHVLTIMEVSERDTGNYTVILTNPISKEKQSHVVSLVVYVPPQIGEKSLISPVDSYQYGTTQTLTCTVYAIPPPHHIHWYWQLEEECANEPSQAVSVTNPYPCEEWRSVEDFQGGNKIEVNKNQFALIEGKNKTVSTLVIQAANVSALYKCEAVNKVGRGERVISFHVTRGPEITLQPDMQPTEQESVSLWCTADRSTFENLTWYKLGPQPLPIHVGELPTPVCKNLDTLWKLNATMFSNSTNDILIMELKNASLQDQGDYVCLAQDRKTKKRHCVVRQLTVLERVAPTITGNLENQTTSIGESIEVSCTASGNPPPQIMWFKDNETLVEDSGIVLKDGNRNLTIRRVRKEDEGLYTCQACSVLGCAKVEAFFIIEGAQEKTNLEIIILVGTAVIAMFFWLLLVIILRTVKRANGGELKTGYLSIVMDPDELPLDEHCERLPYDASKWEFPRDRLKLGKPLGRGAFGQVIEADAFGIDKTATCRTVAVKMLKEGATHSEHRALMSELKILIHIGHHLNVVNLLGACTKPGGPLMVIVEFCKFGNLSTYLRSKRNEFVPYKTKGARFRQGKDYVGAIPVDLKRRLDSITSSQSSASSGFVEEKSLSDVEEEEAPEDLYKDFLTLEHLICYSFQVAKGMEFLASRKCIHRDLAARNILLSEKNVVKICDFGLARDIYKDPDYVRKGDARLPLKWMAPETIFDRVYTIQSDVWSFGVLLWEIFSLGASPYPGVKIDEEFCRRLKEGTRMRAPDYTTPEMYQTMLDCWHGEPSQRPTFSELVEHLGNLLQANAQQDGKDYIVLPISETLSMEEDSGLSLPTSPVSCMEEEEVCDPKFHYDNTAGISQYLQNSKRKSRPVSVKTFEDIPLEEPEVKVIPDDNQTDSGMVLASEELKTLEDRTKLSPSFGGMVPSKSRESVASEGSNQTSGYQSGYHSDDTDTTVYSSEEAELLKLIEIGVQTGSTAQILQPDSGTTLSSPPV

Kd (VEGFR-2; [3]): 3600 nM
remaining binding at 10 µM (VEGFR-2; [4]): 30%
Kd (DYRK1B; [3]): 340 nM
remaining binding at 10 µM (DYRK1B; [4]): 5.6%
remaining binding at 10 µM (GSK3B): 35%
remaining binding at 10 µM (KIT; MBZ at 10 μM, value outside parentheses, read-out: Percent Control at 10 μM): 7.4%
Kd (KIT; [3]): 750 nM
remaining binding at 10 µM (PIK3CG): 18%
remaining binding at 10 µM (ABL1-nonphosphorylated): 2%
remaining binding at 10 µM [1]: 2.2%
Kd (JNK2; [3]): 1090 nM
remaining binding at 10 µM (JNK2; [4]): 9.6%
Kd (CDK7; [3]): 390 nM
remaining binding at 10 µM (CDK7; [4]): 11%
remaining binding at 10 µM (KIT (D816V)): 33%
Kd (JNK3; [3]): 410 nM
remaining binding at 10 µM (JNK3; [4]): 3%
remaining binding at 10 µM (JAK3): 29%
Kd (PDGFR-B; [3]): 660 nM
remaining binding at 10 µM (PDGFR-B; [4]): 3.2%
remaining binding at 10 µM (CSNK1D): 36%
Kd (PDGFR-A; [3]): 820 nM
remaining binding at 10 µM (PDGFR-A; [4]): 7.8%
remaining binding at 10 µM (ULK2): 30%
remaining binding at 10 µM (MET): 32%
Kd (ABL1-phosphorylated; [3]): 120 nM
remaining binding at 10 µM (ABL1-phosphorylated; [4]): 0.9%
remaining binding at 10 µM (JNK1): 14%
Kd (P38-alpha; [3]): 1660 nM
remaining binding at 10 µM (P38-alpha; [4]): 17%
remaining binding at 10 µM [2]: 3.2%
remaining binding at 10 µM (DYRK1A): 34%
remaining binding at 10 µM (SRC): 34%
SMILES: COC(=O)Nc1nc2ccc(C(=O)c3ccccc3)cc2[nH]1 [MBZ, mebendazole]
inhibition of hookworm tubulin (hookworm tubulin): potent nanomolar inhibition
potency on mammalian tubulin relative to hookworm tubulin (fold less) (mammalian tubulin): 1000 ×
